Experimental data reported in US20090311217A1, “3-SUBSTITUTED-1H-INDOLE COMPOUNDS, THEIR USE AS MTOR KINASE AND PI3 KINASE INHIBITORS, AND THEIR SYNTHESES” (priority 2008, published 2009).

Key:
Format in all cases: biochemical
[1] = target: PI3K-alpha (Homo sapiens, UniProt P42336); experiment: PI3K-alpha fluorescence polarization assay; settings: read-out: PI3Kα Avg. IC50
[2] = target: PI3K-gamma (Homo sapiens, UniProt P48736); experiment: PI3K-gamma fluorescence polarization assay; settings: PI3Kγ Avg. IC50
Chain of PI3K-gamma (P48736 whole entry, species assumed, the tested form may be a part): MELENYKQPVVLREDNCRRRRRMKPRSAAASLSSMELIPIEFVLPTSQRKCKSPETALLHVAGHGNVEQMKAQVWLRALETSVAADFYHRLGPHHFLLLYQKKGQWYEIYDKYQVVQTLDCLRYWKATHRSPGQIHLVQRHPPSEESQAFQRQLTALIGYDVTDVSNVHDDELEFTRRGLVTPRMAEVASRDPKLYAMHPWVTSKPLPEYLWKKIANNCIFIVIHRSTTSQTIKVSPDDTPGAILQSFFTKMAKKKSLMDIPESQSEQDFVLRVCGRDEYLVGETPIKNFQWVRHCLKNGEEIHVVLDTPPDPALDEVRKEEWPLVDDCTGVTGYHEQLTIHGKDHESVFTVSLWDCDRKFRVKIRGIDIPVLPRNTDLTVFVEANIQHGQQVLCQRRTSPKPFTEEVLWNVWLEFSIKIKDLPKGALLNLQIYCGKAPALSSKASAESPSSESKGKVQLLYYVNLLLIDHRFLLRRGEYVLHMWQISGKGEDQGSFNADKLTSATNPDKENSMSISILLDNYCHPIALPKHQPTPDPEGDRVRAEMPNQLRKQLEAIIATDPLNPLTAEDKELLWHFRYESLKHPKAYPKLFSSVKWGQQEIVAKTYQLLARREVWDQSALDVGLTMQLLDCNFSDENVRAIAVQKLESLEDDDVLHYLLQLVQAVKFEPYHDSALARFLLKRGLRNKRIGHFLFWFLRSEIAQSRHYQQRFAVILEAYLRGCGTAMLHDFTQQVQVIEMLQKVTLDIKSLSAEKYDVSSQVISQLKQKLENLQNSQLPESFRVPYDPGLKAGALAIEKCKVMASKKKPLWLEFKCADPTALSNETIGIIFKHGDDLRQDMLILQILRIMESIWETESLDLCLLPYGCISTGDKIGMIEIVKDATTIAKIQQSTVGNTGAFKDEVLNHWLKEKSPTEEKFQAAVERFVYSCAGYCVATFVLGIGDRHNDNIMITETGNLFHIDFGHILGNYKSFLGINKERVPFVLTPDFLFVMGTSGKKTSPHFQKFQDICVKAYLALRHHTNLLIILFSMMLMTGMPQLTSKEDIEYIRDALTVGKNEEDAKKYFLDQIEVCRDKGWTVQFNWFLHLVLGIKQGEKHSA
In short: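 Reactions used 5 ng enzyme with 2.5 μM diC8-PI(4,5)P2 and 25 μM ATP in 5 mM HEPES pH 7, 2.5 mM MgCl2, run 1 h at 25° C. After an EDTA quench (10 mM), 100 nM GST-GRP1 PH domain and 5 nM BODIPY-TMR-IP4 were added and fluorescence polarization was read.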

[3] = target: T1, human TOR (Homo sapiens, UniProt P42345); experiment: mTOR enzyme assay (DELFIA, His6-S6K substrate); settings: read-out: mTOR Kinase Avg. IC50
T1 construct: FLAG

Chain of PI3K-alpha (P42336 whole entry, species assumed): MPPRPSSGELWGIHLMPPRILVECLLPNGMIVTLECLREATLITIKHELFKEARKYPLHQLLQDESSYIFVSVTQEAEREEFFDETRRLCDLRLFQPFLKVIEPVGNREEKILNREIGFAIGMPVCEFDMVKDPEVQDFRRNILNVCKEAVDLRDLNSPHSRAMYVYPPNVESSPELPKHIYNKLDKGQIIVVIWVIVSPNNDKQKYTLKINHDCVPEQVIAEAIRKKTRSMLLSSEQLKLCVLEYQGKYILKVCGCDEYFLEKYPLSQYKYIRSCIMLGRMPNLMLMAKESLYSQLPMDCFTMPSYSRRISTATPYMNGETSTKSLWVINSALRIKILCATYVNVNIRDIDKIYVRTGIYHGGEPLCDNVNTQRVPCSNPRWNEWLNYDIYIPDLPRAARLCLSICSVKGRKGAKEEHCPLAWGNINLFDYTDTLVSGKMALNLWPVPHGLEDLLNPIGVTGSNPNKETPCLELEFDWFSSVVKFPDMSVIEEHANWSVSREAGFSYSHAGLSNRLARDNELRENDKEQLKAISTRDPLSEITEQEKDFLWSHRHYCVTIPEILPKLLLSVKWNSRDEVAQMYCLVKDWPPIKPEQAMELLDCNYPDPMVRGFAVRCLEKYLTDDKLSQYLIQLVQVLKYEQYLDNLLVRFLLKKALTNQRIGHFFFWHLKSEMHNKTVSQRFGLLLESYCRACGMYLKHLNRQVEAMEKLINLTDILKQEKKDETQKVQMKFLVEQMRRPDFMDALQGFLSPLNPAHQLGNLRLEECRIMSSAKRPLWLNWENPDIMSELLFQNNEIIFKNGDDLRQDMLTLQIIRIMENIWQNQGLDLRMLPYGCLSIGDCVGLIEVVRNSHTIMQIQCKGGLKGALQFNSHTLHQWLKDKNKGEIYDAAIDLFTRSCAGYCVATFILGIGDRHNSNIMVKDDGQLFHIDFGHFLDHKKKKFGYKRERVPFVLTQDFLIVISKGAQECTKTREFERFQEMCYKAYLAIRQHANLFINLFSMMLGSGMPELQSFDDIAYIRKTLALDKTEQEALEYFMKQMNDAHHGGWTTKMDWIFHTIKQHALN
Chain of PI3K-alpha (P27986 whole entry partner, species assumed): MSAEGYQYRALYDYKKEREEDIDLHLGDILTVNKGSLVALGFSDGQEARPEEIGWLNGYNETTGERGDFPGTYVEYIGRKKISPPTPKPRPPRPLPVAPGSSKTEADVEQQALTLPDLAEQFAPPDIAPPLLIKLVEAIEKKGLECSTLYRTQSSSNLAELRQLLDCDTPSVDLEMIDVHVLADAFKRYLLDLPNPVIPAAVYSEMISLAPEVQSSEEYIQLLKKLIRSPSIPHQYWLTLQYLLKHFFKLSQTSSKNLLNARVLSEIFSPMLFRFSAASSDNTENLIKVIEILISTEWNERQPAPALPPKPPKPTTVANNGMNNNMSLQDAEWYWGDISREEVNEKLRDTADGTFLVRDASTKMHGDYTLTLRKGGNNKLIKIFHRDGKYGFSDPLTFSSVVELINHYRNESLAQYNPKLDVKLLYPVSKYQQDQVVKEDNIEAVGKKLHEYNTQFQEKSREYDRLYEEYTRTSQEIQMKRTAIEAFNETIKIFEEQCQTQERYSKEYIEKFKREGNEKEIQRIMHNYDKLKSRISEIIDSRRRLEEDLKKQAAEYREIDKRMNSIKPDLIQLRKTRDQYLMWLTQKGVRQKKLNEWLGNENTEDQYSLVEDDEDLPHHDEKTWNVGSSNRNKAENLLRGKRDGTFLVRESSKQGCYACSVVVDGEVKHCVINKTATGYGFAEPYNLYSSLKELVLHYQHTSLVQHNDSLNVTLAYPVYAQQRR

| Structure (SMILES) | IC50 [1] [µM] | IC50 [2] [µM] | IC50 [3] [µM] |
| --- | --- | --- | --- |
| Cc1noc(C)c1-c1[nH]c2ccccc2c1C=C1Oc2cc(O)cc(O)c2C1=O [Example 204, 2-{[2-(3,5-dimethylisoxazol-4-yl)-1H-indol-3-yl]methylene}-4,6-dihydroxy-1-benzofuran-3(2H)-one] | 1.16 | 6.43 | 0.19 |
| O=C1C(=Cc2c[nH]c3cccc(Br)c23)Oc2cc(O)cc(O)c21 [Example 174, 2-[(4-bromo-1H-indol-3-yl)methylene]-4,6-dihydroxy-1-benzofuran-3(2H)-one] | 1.51 | > 10 | 7.1 |
| COc1ccc2c(c1)c(/C=C1\Oc3ccc(NC(=O)Nc4ccc(OCCCCN(C)C)cc4)cc3C1=O)c(C)n2CCN1CCN(C)CC1 [Compound 674, 1-{4-[4-(dimethylamino)butoxy]phenyl}-3-[(2Z)-2-({5-methoxy-2-methyl-1-[2-(4-methylpiperazin-1-yl)ethyl]-1H-indol-3-yl}methylidene)-3-oxo-2,3-dihydro-1-benzofuran-5-yl]urea] | 0.01 | 0.686 | 0.35 |
| CNCCNC(=O)Nc1ccc2c(c1)C(=O)/C(=C/c1c(-c3c(C)nn(C)c3C)[nH]c3c(F)cc(OC)cc13)O2 [Compound 728, 1-[(2Z)-2-{[7-fluoro-5-methoxy-2-(1,3,5-trimethyl-1H-pyrazol-4-yl)-1H-indol-3-yl]methylidene}-3-oxo-2,3-dihydro-1-benzofuran-5-yl]-3-[2-(methylamino)ethyl]urea] | 0.00095 | 0.00355 | 0.007 |
| Cn1c(-c2ccc(Cl)cc2)c(C=C2Oc3cc(O)cc(O)c3C2=O)c2ccccc21 [Example 201, 2-{[2-(4-chlorophenyl)-1-methyl-1H-indol-3-yl]methylene}-4,6-dihydroxy-1-benzofuran-3(2H)-one] | 0.712 | 5.46 | 0.12 |
| CN(C)CCCn1c(-c2ccccc2)c(C=C2Oc3cc(O)cc(O)c3C2=O)c2ccccc21 [Example 156, 2-({1-[3-(dimethylamino)propyl]-2-phenyl-1H-indol-3-yl}methylene)-4,6-dihydroxy-1-benzofuran-3(2H)-one] | 1.29 | 6 | 1.6 |
| COc1ccc2c(c1)c(/C=C1\Oc3cc(O)cc(O)c3C1=O)c(C)n2CC(=O)N(C)C [Example 322, 2-{3-[(Z)-(4,6-Dihydroxy-3-oxo-1-benzofuran-2(3H)-ylidene)methyl]-5-methoxy-2-methyl-1H-indol-1-yl}-N,N-dimethylacetamide] | 0.0398 | 0.178 | 0.023 |
| CC(C)Oc1ccc(-c2cccc3c2c(/C=C2\Oc4cc(O)cc(O)c4C2=O)cn3C)cc1 [Example 381, (2Z)-4,6-dihydroxy-2-{[4-(4-isopropoxyphenyl)-1-methyl-1H-indol-3-yl]methylene}-1-benzofuran-3(2H)-one] | 2.74 | 3.95 | 0.18 |
| Cn1c(-c2cccc(F)c2)c(C=C2Oc3cc(O)cc(O)c3C2=O)c2ccccc21 [Example 197, 2-{[2-(3-fluorophenyl)-1-methyl-1H-indol-3-yl]methylene}-4,6-dihydroxy-1-benzofuran-3(2H)-one] | 1.1 | 9.16 | 0.28 |
| COc1ccc2c(c1)c(/C=C1\Oc3cc(O)ccc3C1=O)c(C)n2CCN1CCC(C)CC1 [Example 455, (2Z)-6-Hydroxy-2-({5-methoxy-2-methyl-1-[2-(4-methylpiperidin-1-yl)ethyl]-1H-indol-3-yl}methylene)-1-benzofuran-3(2H)-one] | 0.039 | 0.612 | 1.4 |

Further lines, results first:

| IC50 [1] [µM] | IC50 [2] [µM] | IC50 [3] [µM] | Structure (SMILES) |
| --- | --- | --- | --- |
| 0.0003 | 0.003 | 0.001 | COc1ccc2[nH]c(-c3c(C)nn(C)c3C)c(/C=C3\Oc4ccc(NC(=O)Nc5ccc(C(=O)N(C)CCN6CCCC6)cc5)cc4C3=O)c2c1 [Compound 701, 4-({[(2Z)-2-{[5-methoxy-2-(1,3,5-trimethyl-1H-pyrazol-4-yl)-1H-indol-3-yl]methylidene}-3-oxo-2,3-dihydro-1-benzofuran-5-yl]carbamoyl}amino)-N-methyl-N-(2-pyrrolidin-1-ylethyl)benzamide] |
| 0.0013 | 0.01 | 0.01 | CNC(=O)Nc1ccc2c(c1)C(=O)/C(=C/c1c(-c3cnn(CC(C)C)c3)[nH]c3ccc(OC)cc13)O2 [Compound 706, 1-[(2Z)-2-({5-methoxy-2-[1-(2-methylpropyl)-1H-pyrazol-4-yl]-1H-indol-3-yl}methylidene)-3-oxo-2,3-dihydro-1-benzofuran-5-yl]-3-methylurea] |
| 0.142 | 5.13 | > 20 | COc1ccc2c(c1)c(/C=C1\Oc3cc(O)c(Cl)cc3C1=O)c(C)n2CCCN(C)C [Example 448, (2Z)-5-Chloro-2-({1-[3-(dimethylamino)propyl]-5-methoxy-2-methyl-1H-indol-3-yl}methylene)-6-hydroxy-1-benzofuran-3(2H)-one] |
| 0.0025 | 0.068 | 0.013 | CNC(=O)Nc1ccc2c(c1)C(=O)/C(=C/c1c(-c3c(C)nn(C)c3C)n(CCN3CCN(C)CC3)c3ccc(OC)cc13)O2 [Compound 646, 1-[(2Z)-2-({5-methoxy-1-[2-(4-methylpiperazin-1-yl)ethyl]-2-(1,3,5-trimethyl-1H-pyrazol-4-yl)-1H-indol-3-yl}methylene)-3-oxo-2,3-dihydro-1-benzofuran-5-yl]-3-methylurea] |
| 0.0003 | 0.00325 | 0.007 | CCn1c(C)c(/C=C2\Oc3ccc(NC(=O)Nc4ccc(NC(=O)CCN(C)C)cc4)cc3C2=O)c2cc(OC)ccc21 [Compound 676, N-{4-[({(2Z)-2-[(1-ethyl-5-methoxy-2-methyl-1H-indol-3-yl)methylidene]-3-oxo-2,3-dihydro-1-benzofuran-5-yl}carbamoyl)amino]phenyl}-N3,N3-dimethyl-b-alaninamide] |
| 0.004 | > 5.5 | 0.33 | COc1ccc2c(c1)c(/C=C1\Oc3ccc(NC(=O)Nc4ccc(N(C)C(=O)CCN(C)C)cc4)cc3C1=O)c(C)n2CCN1CCN(C)CC1 [Compound 695, N-[4-({[(2Z)-2-({5-methoxy-2-methyl-1-[2-(4-methylpiperazin-1-yl)ethyl]-1H-indol-3-yl}methylidene)-3-oxo-2,3-dihydro-1-benzofuran-5-yl]carbamoyl}amino)phenyl]-N,N3,N3-trimethyl-b-alaninamide] |
| 0.0008 | 0.0045 | 0.034 | CCn1c(C)c(/C=C2\Oc3ccc(NC(=O)Nc4ccc(C(=O)NCCCN(C)C)cc4)cc3C2=O)c2cc(OC)ccc21 [Compound 666, N-[3-(dimethylamino)propyl]-4-[({(2Z)-2-[(1-ethyl-5-methoxy-2-methyl-1H-indol-3-yl)methylidene]-3-oxo-2,3-dihydro-1-benzofuran-5-yl}carbamoyl)amino]benzamide] |
| 0.008 | 0.039 | 0.096 | CNC(=O)Nc1ccc2c(c1)C(=O)/C(=C/c1c(C(=O)NC(C)(C)CO)[nH]c3ccc(OC)cc13)O2 [Compound 622, N-(2-hydroxy-1,1-dimethylethyl)-5-methoxy-3-[(Z)-{5-[(methylcarbamoyl)amino]-3-oxo-1-benzofuran-2(3H)-ylidene}methyl]-1H-indole-2-carboxamide] |
| 0.00035 | 0.0029 | 0.001 | COc1cc(F)c2[nH]c(-c3c(C)nn(C)c3C)c(/C=C3\Oc4ccc(NC(=O)Nc5ccc(C(=O)N6CCC(N(C)C)CC6)cc5)cc4C3=O)c2c1 [Compound 729, 1-(4-{[4-(dimethylamino)piperidin-1-yl]carbonyl}phenyl)-3-[(2Z)-2-{[7-fluoro-5-methoxy-2-(1,3,5-trimethyl-1H-pyrazol-4-yl)-1H-indol-3-yl]methylidene}-3-oxo-2,3-dihydro-1-benzofuran-5-yl]urea] |
| 0.0055 | 0.0255 | 0.026 | CNC(=O)Nc1ccc2c(c1)C(=O)/C(=C/c1c(-c3c(C)nn(CCN(C)C)c3C)[nH]c3ccc(OC)cc13)O2 [Compound 705, 1-{(2Z)-2-[(2-{1-[2-(dimethylamino)ethyl]-3,5-dimethyl-1H-pyrazol-4-yl}-5-methoxy-1H-indol-3-yl)methylidene]-3-oxo-2,3-dihydro-1-benzofuran-5-yl}-3-methylurea] |
| 0.0004 | 0.00225 | < 0.001 | COc1ccc2[nH]c(-c3c(C)nn(C)c3C)c(/C=C3\Oc4ccc(NC(=O)Nc5ccc(C(=O)NCCN(C)C)cc5)cc4C3=O)c2c1 [Compound 711, N-[2-(dimethylamino)ethyl]-4-({[(2Z)-2-{[5-methoxy-2-(1,3,5-trimethyl-1H-pyrazol-4-yl)-1H-indol-3-yl]methylidene}-3-oxo-2,3-dihydro-1-benzofuran-5-yl]carbamoyl}amino)benzamide] |
| 0.0485 | 3.2 | 2.2 | COc1ccc2c(c1)c(/C=C1\Oc3cc(O)cc(C)c3C1=O)c(C)n2CCCN(C)C [Example 468, (2Z)-2-({1-[3-(Dimethylamino)propyl]-5-methoxy-2-methyl-1H-indol-3-yl}methylene)-6-hydroxy-4-methyl-1-benzofuran-3(2H)-one] |
| 0.0013 | 0.0255 | 0.05 | CNC(=O)Nc1ccc2c(c1)C(=O)/C(=C/c1c(-c3cccc(CN(C)C)c3)[nH]c3ccc(OC)cc13)O2 [Compound 629, 1-{(2Z)-2-[(2-{3-[(dimethylamino)methyl]phenyl}-5-methoxy-1H-indol-3-yl)methylidene]-3-oxo-2,3-dihydro-1-benzofuran-5-yl}-3-methylurea] |
